Patent publication US7998460B2, “Prevention of deficits in neurogenesis with anti-inflammatory agents” (The Board of Trustees of the Leland Stanford Junior …, priority 2003, dated 2011)
“Also recorded” adds a separate entry of the source.

Tests used:
[1] = system: C57BI/6 mice; test: Locomotor chambers and Morris water maze after LPS in mice; type: in vivo, mouse; settings: for effect of NSAID on LPS-induced impairment of probe trial performance: oral NSAID course, training from Day 28
Description: Behavioral testing. Locomotor activity was measured in 17×17 inch chambers lined with three 16-beam infrared arrays in photocell boxes (MED Associates, Inc., St. Albans, Vt.). The mice were placed into the chambers and their locomotor activity was recorded for 20 minutes 4 days after LPS was injected (on Day 4). A 50 msec scanning rate was used for measuring beams broken. Distance traveled was analyzed for estimates of locomotion based on the movement of a given distance and resting delay (movement in a given period) using Open Field Activity software (MED Associates, Inc., St. Albans, Vt.).
Hippocampus-dependent learning and memory was assessed in the standard Morris water maze task. All hippocampus-dependent training and testing was conducted in a black circular tank (170 cm diameter×43 cm height) filled water made opaque using white non-toxic Tempra paint (Rich Art Color Co. Inc, Northvale, Calif.; training and testing). A platform (13 cm diameter×28.5 cm height) was hidden 1 cm below the water surface for platform shaping and training trials. Time and distance traveled in the pool was recorded using Videotrack Automated Behavioral Analysis System (Viewpoint Life Sciences Inc., Otterburn Park, Quebec).
Platform shaping began three days before platform training (Days 25-27). In the absence of extra-maze cues, mice were released from random points in the pool (filled with clearwater) near the platform and gently guided to the platform. Shaping trials continued until the mouse remained on the platform for 15 s over 3 consecutive trials on each of the three sessions.
[…] In the presence of extra-maze cues, the mice were released from the middle of the east, south, or west quadrant, facing the pool wall, and were given 120 s to find the platform hidden beneath opaque water in the center of the north quadrant. […] Sessions of 6 training trials (inter-trial interval of approximately 30 min) were conducted daily until all the mice located the platform in an average of 15 s or less within a session. […] Pathlength and latency were analyzed as measures of learning, swim speed was analyzed as a measure of sensorimotor ability and % time spent in outer annulus was analyzed as a measure of anxiety.
Probe Trial Testing was conducted at 1 week after mice reached criterion in the platform training phase of the experiment. The room setup was identical for platform training and probe trials, with the exception that the platform was removed from the pool during probe trials. The mice were given a single trial in which they were released from the center of the pool and then after 3 minutes were removed from the location that held the platform during training trials. Percent time and distance spent in each quadrant were analyzed as measures of memory, swim speed and total distance swum were analyzed as measures of sensorimotor ability and % time and distance spent in the outer annulus were analyzed as measures of anxiety. After the last probe trial, we ran four daily sessions of reversal trials (4 trials per session) in which mice were given 120 s to locate the platform hidden beneath opaque water in the south quadrant to better interpret whether probe trial performance was indicative of memory or perseveration. […] A visible platform session (2 trials) was administered after the final reversal trial to further test sensorimotor ability. Reversal and visible platform trial performance was scored identically to platform training performance.

[2] = system: hippocampal neurogenesis; test: LPS-induced systemic inflammation, hippocampal neurogenesis, one-week BrdU labeling paradigm; type: in vivo, rat
Description: To determine the effects of inflammation on adult hippocampal neurogenesis, bacterial lipopolysaccharide (LPS) was injected into adult female rats to induce systemic inflammation. The intraperitoneal administration of LPS causes a peripheral inflammatory cascade that is transduced to the brain via IL-1β from the cerebral vasculature and causes a strong upregulation of central pro-inflammatory cytokine production. Following LPS exposure, rats were treated systemically with bromo-deoxyuridine (BrdU) for 6 days to label proliferating cells within the hippocampus. Animals were then sacrificed on the 7th day. The fate of the BrdU-labeled, proliferative cells was analyzed with immuno-fluorescent staining and confocal microscopy.
Control animals were given either vehicle (5% bicarbonate) injections i.p. or plain dog food. To ensure complete consumption of food and medication in the 2 month paradigm, rats were restricted to 80% of their ad lib intake.
LPS exposure. Bacterial lipopolysaccharide (LPS, Sigma, St Louis, Mo.) was administered in sterile saline by intraperitoneal injection at a dose of 1 mg/Kg one time. This caused mild sickness behavior (decreased grooming, decreased locomotor activity, increased piloerection) for approximately 2 days, resolving by the 3rd day. The dose of LPS chosen causes mild sickness behavior in rats that resolves within 1-2 days; the dose of LPS used to induce endotoxic shock is 10-fold higher than that used in the present study.
Immunocytochemistry and immunofluorescent staining. Free floating sections were immunostained as previously described using the following primary antibodies and working concentrations: mouse anti-NeuN (1:4, gift from R. Mullen); guinea pig-anti GFAP (1:800, Harlan, Indianapolis, Ind.); mouse anti-type III βtubulin (Tuj-1, 1:500, Berkeley Antibody Co., Richmond, Calif.); rabbit anti-NG2 (1:200, Chemicon, Temecula, Calif.); mouse anti-rat CD11b (1:200, Serotec, Oxford, U.K.); mouse anti-ED-1 (1:100, Research Diagnostics Inc., Flanders, N.J.); biotinylated-Lycopersicon esculentum (tomato) lectin (1:200, Vector, Burlingame, Calif.).
Confocal microscopy. All confocal microscopy was performed using a Zeiss 510 confocal microscope. Appropriate gain and black level settings were determined on control tissues stained with secondary antibodies alone. Upper and lower thresholds were always set using the range indicator function to minimize data loss through saturation.
Cell counting and unbiased stereology. All counts were limited to the hippocampal granule cell layer proper and a 50 μm border along the hilar margin that included the neurogenic subgranule zone. The proportion of BrdU cells displaying a lineage-specific phenotype was determined by scoring the co-localization of cell phenotype markers with BrdU using confocal microscopy. Split panel and z-axis analysis were used for all counting. All counts were performed using multi-channel configuration with a 40× objective and electronic zoom of 2. When possible, 100 or more BrdU-positive cells were scored for each marker per animal. Each cell was manually examined in its full “z”-dimension and only those cells for which the nucleus was unambiguously associated with the lineage-specific marker were scored as positive. The total number of BrdU-labeled cells per hippocampal granule cell layer and subgranule zone was determined using diaminobenzadine stained tissues. In a separate series, the total number of ED1-labeled cells per dentate gyrus was also determined using diaminobenzadine stained tissue. Stained BrdU-positive nuclei or ED1-positive cells were scored under light microscopy using Microbrightfield Stereo Investigator software and the Fractionator method. Overestimation was corrected using the Abercrombie method for nuclei with empirically determined average diameter of 13 μm within a 40 μm section.

[3] = indomethacin 2.5 mg/kg i.p. twice each day with LPS
[4] = LPS 1 mg/Kg i.p. once, sacrifice on 7th day

Compound	effect of NSAID on LPS-induced impairment of probe trial performance ([1]; LPS 5 mg/kg)	effect of NSAID on LPS-induced impairment of probe trial performance ([1]; LPS 5 mg/kg, listed as Indomethacin)	effect on density of activated microglia (ED1+) after LPS [2, 3]	effect on distance from BrdU+ nucleus to nearest vessel after LPS [2, 3]	effect on LPS-induced inhibition of neurogenesis ([2]; indomethacin 2.5 mg/kg i.p. twice each day, concurrently with LPS)	effect on neurogenesis in control animals (drug alone) ([2]; indomethacin 2.5 mg/kg i.p. twice each day, no LPS)	total distance explored and duration spent exploring a novel chamber vs vehicle ([1]; LPS 5 mg/kg, Day 4)	learning and remembering hidden platform position vs control, acute phase recovery ([1]; LPS 5 mg/kg, training from Day 7)	probe trial time in platform quadrant vs control ([1]; training commenced 4 weeks after LPS)	decrease in hippocampal neurogenesis (proportion of non-microglial BrdU+ cells co-expressing Dcx) [2, 4]	increase in the density of activated microglia (CD68/ED1-positive) in the dentate gyrus [2, 4]
COc1ccc2c(c1)c(CC(=O)O)c(C)n2C(=O)c1ccc(Cl)cc1 [indomethacin]	partially attenuated	reversed the effects of LPS on probe trial performance	decreases this inflammatory response	restores the vascular association	completely blocked; also recorded: restores neurogenesis	no effect	–	–	–	–	–
lipopolysaccharide [LPS]	–	–	–	–	–	–	significantly smaller	equally efficient	significantly smaller amount of time; also recorded: significantly less time	35%	240%
